Results reported in ChEMBL document CHEMBL5620419, “Discovery of new Lenalidomide derivatives as potent and selective GSPT1 degraders” (Eur J Med Chem, 2023).
pEC50: −log10 of the molar value.

Biological target: Protein cereblon/Eukaryotic peptide chain release factor GTP-binding subunit ERF3A (Homo sapiens, UniProt P15170+Q96SW2)
Test: PROTAC activity at CRBN/GSPT1 in human U-937 cells assessed as degradation of GSPT1 measured after 6 hrs by Western blot analysis
Type: cell-based

Sequence of Protein cereblon/Eukaryotic peptide chain release factor GTP-binding subunit ERF3A (Q96SW2 whole entry): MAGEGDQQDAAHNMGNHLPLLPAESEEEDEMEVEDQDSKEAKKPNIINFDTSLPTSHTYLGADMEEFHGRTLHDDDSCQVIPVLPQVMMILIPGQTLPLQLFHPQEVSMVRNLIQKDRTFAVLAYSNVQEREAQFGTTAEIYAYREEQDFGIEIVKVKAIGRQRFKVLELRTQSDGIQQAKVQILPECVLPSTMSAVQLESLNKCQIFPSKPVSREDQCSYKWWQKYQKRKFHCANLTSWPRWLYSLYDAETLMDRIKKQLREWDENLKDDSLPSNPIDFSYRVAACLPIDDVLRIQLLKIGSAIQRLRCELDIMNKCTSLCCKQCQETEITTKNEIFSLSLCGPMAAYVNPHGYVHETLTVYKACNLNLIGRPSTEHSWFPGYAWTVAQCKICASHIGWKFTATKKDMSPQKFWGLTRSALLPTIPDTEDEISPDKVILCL
Sequence of Protein cereblon/Eukaryotic peptide chain release factor GTP-binding subunit ERF3A (P15170 whole entry): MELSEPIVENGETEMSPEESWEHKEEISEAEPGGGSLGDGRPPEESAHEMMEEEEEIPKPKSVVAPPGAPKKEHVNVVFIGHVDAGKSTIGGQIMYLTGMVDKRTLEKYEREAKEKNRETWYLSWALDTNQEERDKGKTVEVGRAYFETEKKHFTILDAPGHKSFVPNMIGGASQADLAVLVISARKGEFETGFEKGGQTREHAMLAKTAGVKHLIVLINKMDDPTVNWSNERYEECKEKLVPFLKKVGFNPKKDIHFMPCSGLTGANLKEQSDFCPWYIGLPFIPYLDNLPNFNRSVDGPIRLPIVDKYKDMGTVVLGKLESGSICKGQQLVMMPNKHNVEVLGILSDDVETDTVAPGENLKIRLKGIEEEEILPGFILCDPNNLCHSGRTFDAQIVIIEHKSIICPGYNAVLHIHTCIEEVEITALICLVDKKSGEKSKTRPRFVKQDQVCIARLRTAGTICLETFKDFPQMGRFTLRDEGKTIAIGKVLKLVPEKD

SMILES: Cc1cc(NC(=O)C(C)Cc2ccc3c(c2)CN(C2CCC(=O)NC2=O)C3=O)ccc1Cl (stereo unspecified)
- pEC50: < 5.00
